Like-named read-outs stand apart in the source and are kept apart here. Each block holds one molecule with its values, some of them ahead of it.
Legend:
Assay type in all cases: cell-based
MDA-MB-231 cells [1] = experiment: Drug response, 2D controls on tissue culture plastic; details: for EC50 / IC50: 2D culture
Description: MDA-MB-231 cells were trypsinized, counted, and seeded in a fibronectin coated (10 μg/mL), 96 well plate at a density of 5,000 cells/well in serum-containing medium. To measure the drug response of cells independent of encapsulation, pre-encapsulation conditions were replicated by allowing the cells to adhere overnight followed by culture in serum-free medium for 48 hr. DOX, PAC, and 5-FU were reconstituted in DMSO to a stock concentration of 172.4, 58.5, and 384.6 mM, respectively. Stock solutions were diluted in medium to a range of concentrations: DOX (0.001, 0.01, 0.1, 1, 10, 100, or 1000 μM), PAC (0.001, 0.01, 0.1, 1, 10, or 100 μM), and 5-FU (0.001, 0.01, 0.1, 1, 10, 100, or 1000 μM) and added to the MDA-MB-231 cells for 48 hr (n=6 wells per concentration). 46 At the highest drug concentration tested, the DMSO concentration remained […]; thus, 0.1% (v/v) DMSO was used as a vehicle control in 2D studies. Cells were rinsed in PBS twice to remove excess medium, followed by labeling with a Live/Dead® cell viability kit (Invitrogen). Only live cells were labeled, as dead cells detached from the wells and were washed away. Labeled cells were imaged using the proper filter cubes and analyzed using FIJI software (NIH).
(§1) For statistical comparison between viability values, distribution normality was assessed via quantification of skewness and kurtosis, where values within ±2 indicated a normal distribution. Equal variance among groups was additionally evaluated. A one-way analysis of variance (ANOVA) with a post-hoc Tukey-Kramer test was implemented to determine statistical significance between multiple groups. Unless otherwise Indicated, p<0.05 was considered statistically significant. Origin Lab software was used to fit DOX viability data. A nonlinear, growth/sigmoidal curve fit using a dose response function with a Levenberg Marquardt iteration algorithm was performed and allowed to converge for all conditions with a chi-square tolerance of 1E-9.
The response of MDA-MB-231 cells cultured on standard tissue culture plastic (2D) to DOX, PAC, and 5-FU was quantified as control. MDA-MB-231 cells were cultured on 96 well plates and serum-starved for 48 hr, following the same protocol used for encapsulation for ease of comparison. The MDA-MB-231 cells were exposed to drug-containing medium at the following concentrations (DOX: 0.001, 0.01, 0.1, 1, 10, 100, or 1000 μM; PAC: 0.001, 0.01, 0.1, 1, 10, or 100 μM; and 5-FU: 0.001, 0.01, 0.1, 1, 10, 100, or 1000 μM) for 48 hr. The live MDA-MB-231 cells were fluorescently labeled, imaged, and quantified (FIG. 1).

MDA-MB-231 cells [2] = experiment: Drug response, cells cultured in hydrogels; parameters: viability, times higher in cellular dormancy than growth state: dose or concentration left out as unconfirmed; details: for viability at 4000 µM / viability at 7000 µM / viability at 10000 µM / EC50 / IC50 / viability at 50 µM / viability at 550 µM / viability at 10 µM / viability at 1000 µM / viability at 100 µM: Homo sapiens; for viability at 4000 µM: 4 mM; for viability at 4000 µM / viability at 7000 µM / viability at 10000 µM / viability at 50 µM / viability at 550 µM / viability at 10 µM / viability at 1000 µM / viability at 100 µM: read-out: cell viability (normalized to vehicle control); for viability at 7000 µM: 7 mM; for viability at 10000 µM: 10 mM; for viability at 50 µM: 0.05 mM; for viability at 550 µM: 0.55 mM; for viability at 10 µM: 0.01 mM; for viability at 100 µM: 0.10 mM
Description: DOX, PAC, and 5-FU stocks were diluted in medium to desired concentrations: DOX (0.001, 0.01, 0.05, 0.1, 0.55, 1, or 2 mM), PAC (0.05, 0.1, 0.55, or 1 mM), and 5-FU (1.0, 4.0, 7.0, or 10 mM).
At the highest concentrations tested, the DMSO concentration ranged between 1-2% (v/v) for all drugs used. […] Thus, all vehicle controls used in this study contained medium with 1% (v/v) DMSO. […] 15 days post encapsulation, cell-laden hydrogels were rinsed with PBS and transferred to a new well plate for drug exposure for 48 hr. The hydrogels were rinsed twice with PBS to remove excess medium, followed by labeling with a Live/Dead® cell viability kit (Invitrogen) in PBS for 30 min, according to the manufacturer's instructions. The hydrogels were rinsed with PBS for 10 min to remove excess stain. Labeled hydrogels were placed on coverslips and imaged using structured Illumination on a Zeiss AxioObserver Z1 inverted fluorescent microscope as previously described. 32-34 Fluorescent z-stacks (z-height: 150 μm) were acquired approximately at the center of the hydrogels, between the bottom and top surfaces of each sample, and analyzed using FIJI software (NIH). Due to the red autofluorescence of DOX, only the live cells were imaged for viability studies. To quantify cell viability, the number of live cells was normalized to the number of live cells measured in the vehicle control. A minimum of 6 hydrogels were analyzed for each condition.
as §1

MDA-MB-231 cells [3] = experiment: Doxorubicin accumulation and nuclear localization; details: for nuclear to cytoplasmic (N/C) ratio: 48 hr
Description: Cells were encapsulated in hydrogel formulations that induced growth, balanced dormancy, or cellular dormancy for 15 days as described above. The medium was replaced with DOX-containing medium at a concentration of 0.05 mM. Four hydrogels for each formulation were imaged at varying time points (1, 2, 3, 5, 12, 20, 24, 48 hr). The mean cellular fluorescence intensity was measured and plotted against time to quantify intracellular DOX accumulation. To calculate the nuclear to cytoplasmic ratio, the fluorescence intensity measurements of the cytoplasmic and nuclear regions were acquired for each cell, with at least 70 cells measured per image. Due to its mechanism of action, DOX is known to primarily localize to the nucleus of DOX-sensitive cell lines. Studies quantifying DOX localization in multiple cell lines show alignment between high fluorescence intensity and the nucleus. Additionally, nuclear location was approximated based on areas of high fluorescence intensity with distinct morphological features (size, location).

[4] = MDA-MB-231, 48 h, balanced dormancy, 48 hr
[5] = MDA-MB-231, 48 h, cellular dormancy, 48 hr
[6] = MDA-MB-231, 48 h, growth state, 48 hr
[7] = Homo sapiens, MDA-MB-231, 48 hr
[8] = Homo sapiens, MDA-MB-231, 2D, 48 hr, read-out: cell viability
[9] = MDA-MB-231, 48 h, balanced dormancy hydrogel, 48 hr
[10] = MDA-MB-231, 48 h, cellular dormancy hydrogel, 48 hr
[11] = MDA-MB-231, 48 h, growth state hydrogel, 48 hr
[12] = MDA-MB-231, range over the three hydrogel formulations

EC50 (MDA-MB-231 cells [1]; Homo sapiens, MDA-MB-231, 48 h): 1.81 µM
Compound: O=c1[nH]cc(F)c(=O)[nH]1 [5-FU, 5-fluorouracil]
viability at 1000 µM (MDA-MB-231 cells [1]; Homo sapiens, MDA-MB-231, 2D, 1 mM, 48 hr, read-out: cell viability): 65 ± 3%
viability at 4000 µM (MDA-MB-231 cells [2]; [4]): 92 ± 4%
viability at 7000 µM (MDA-MB-231 cells [2]; MDA-MB-231, 48 h, both dormant states, 48 hr): > 90%
viability at 4000 µM (MDA-MB-231 cells [2]; [5]): 100 ± 6%
viability at 10000 µM (MDA-MB-231 cells [2]; [5]): 99 ± 4%
viability at 10000 µM (MDA-MB-231 cells [2]; MDA-MB-231, 48 h, either dormant state, 48 hr): > 93%
viability at 7000 µM (MDA-MB-231 cells [2]; [6]): 80 ± 2%
viability at 10000 µM (MDA-MB-231 cells [2]; [6]): 75 ± 5%
cell viability (normalized to vehicle control) (MDA-MB-231 cells [2]; dormant cells, all concentrations tested): > 90%

EC50 (MDA-MB-231 cells [1]; Homo sapiens, MDA-MB-231, 48 h): 0.006 µM
IC50 (MDA-MB-231 cells [1]; [7]): 0.007 µM
fold increase in IC50, balanced dormancy vs growth state (MDA-MB-231 cells [2]): 1.3 fold
fold increase in IC50, cellular dormancy vs growth state (MDA-MB-231 cells [2]): 1.8 fold
EC50 (MDA-MB-231 cells [2]; [9]): 67.6 µM
IC50 (MDA-MB-231 cells [2]; [9]): 58.3 µM
EC50 (MDA-MB-231 cells [2]; [10]): 83.3 µM
IC50 (MDA-MB-231 cells [2]; [10]): 79.9 µM
EC50 (MDA-MB-231 cells [2]; [11]): 43.6 µM
IC50 (MDA-MB-231 cells [2]; [11]): 43.6 µM
EC50 (MDA-MB-231 cells [2]; [12]): 47.4 to 83.3 µM
IC50 (MDA-MB-231 cells [2]; [12]): 43.6 to 79.9 µM
Compound: COc1cccc2c1C(=O)c1c(O)c3c(c(O)c1C2=O)C[C@@](O)(C(=O)CO)C[C@@H]3O[C@H]1C[C@H](N)[C@H](O)[C@H](C)O1 [DOX, doxorubicin]
viability at 100 µM (MDA-MB-231 cells [1]; [8]): 1%
viability, times higher in cellular dormancy than growth state (MDA-MB-231 cells [2]; 0.55): 4-6 times
viability at 50 µM (MDA-MB-231 cells [2]; [4]): 57 ± 2%
viability at 550 µM (MDA-MB-231 cells [2]; [4]): 16 ± 1%
viability at 10 µM (MDA-MB-231 cells [2]; [5]): 91 ± 12%
viability at 50 µM (MDA-MB-231 cells [2]; [5]): 62 ± 5%
viability at 550 µM (MDA-MB-231 cells [2]; [5]): 24 ± 3%
viability at 10 µM (MDA-MB-231 cells [2]; [6]): 82 ± 1%
viability at 50 µM (MDA-MB-231 cells [2]; [6]): 44 ± 3%
viability at 550 µM (MDA-MB-231 cells [2]; [6]): 5 ± 1%
fold decrease in nuclear localization, dormant vs growth state (MDA-MB-231 cells [3]): 1.5 fold
intracellular accumulation (mean fluorescence intensity) between the three phenotypic states (MDA-MB-231 cells [3]; 0.05 mM, over 48 hr): no statistically significant differences
nuclear to cytoplasmic (N/C) ratio (MDA-MB-231 cells [3]; balanced dormancy, 0.05 mM): 2.3±0.8
nuclear to cytoplasmic (N/C) ratio (MDA-MB-231 cells [3]; cellular dormancy, 0.05 mM): 2.4±1.0
nuclear to cytoplasmic (N/C) ratio (MDA-MB-231 cells [3]; growth state, 0.05 mM): 3.5±2.3

Compound: C[S+](C)[O-] [DMSO, Dimethyl Sulfoxide]
cell viability vs serum-containing medium (MDA-MB-231 cells [2]; 1 or 2% (v/v), growth hydrogel formulation, 48 hr): no significant differences
cytotoxicity (MDA-MB-231 cells [2]; 18%, 26% (v/v)): cytotoxic

EC50 (MDA-MB-231 cells [1]; 48 hr): 0.761 µM
EC50 (MDA-MB-231 cells [1]; Homo sapiens, MDA-MB-231, 48 h): 0.716 µM
IC50 (MDA-MB-231 cells [1]; [7]): 0.651 µM
Compound: CC(=O)O[C@H]1C(=O)[C@@]2(C)[C@H]([C@H](OC(=O)c3ccccc3)[C@]3(O)C[C@H](OC(=O)[C@H](O)[C@@H](NC(=O)c4ccccc4)c4ccccc4)C(C)=C1C3(C)C)[C@]1(OC(C)=O)CO[C@@H]1C[C@@H]2O [PAC, paclitaxel]
viability at 0.01 µM (MDA-MB-231 cells [1]; Homo sapiens, MDA-MB-231, 2D, 0.01 μM, 48 hr, read-out: cell viability): 94 ± 13%
viability at 100 µM (MDA-MB-231 cells [1]; [8]): 6 ± 2%
viability at 550 µM (MDA-MB-231 cells [2]; [4]): 86 ± 5%
viability at 1000 µM (MDA-MB-231 cells [2]; MDA-MB-231, 48 h, balanced dormancy, 1.00 mM, 48 hr): 72 ± 3%
viability at 100 µM (MDA-MB-231 cells [2]; [5]): 91 ± 6%
viability at 550 µM (MDA-MB-231 cells [2]; [5]): 84 ± 5%
viability at 1000 µM (MDA-MB-231 cells [2]; MDA-MB-231, 48 h, cellular dormancy, 1 mM, 48 hr): 75 ± 3%
viability at 1000 µM (MDA-MB-231 cells [2]; MDA-MB-231, 48 h, dormant cells (either state), 1 mM, 48 hr): > 72%
viability at 100 µM (MDA-MB-231 cells [2]; [6]): 55 ± 4%
viability at 550 µM (MDA-MB-231 cells [2]; [6]): 51 ± 4%
viability at 1000 µM (MDA-MB-231 cells [2]; MDA-MB-231, 48 h, growth state, 1 mM, 48 hr): 39 ± 4%

— patent publication US12077741B2, “Crosslinked hydrogel compositions for regulating states of encapsulated cancer cells” (University Of Delaware, priority 2017, dated 2024)
